According to ChEMBL document CHEMBL1125963, “Triply-convergent synthesis of a homochiral 3,3-dimethyl, 15-cyclohexyl prostacyclin analog” (Bioorg Med Chem Lett, 1991):

Legend:
Homo sapiens [1] = species: Homo sapiens; assay: Concentration required to inhibit collagen-induced platelet aggregation by 50 % (>10 uM); IA means inactive; format: functional
Homo sapiens [2] = species: Homo sapiens; assay: Concentration required to inhibit collagen-induced platelet aggregation by 50 %; format: functional

SMILES	IC50 (Homo sapiens [1])	IC50 (Homo sapiens [2]) [nM]
O=C(O)COc1cccc2c1C[C@H]1C[C@@H](O)[C@H](CC[C@@H](O)C3CCCCC3)[C@H]1C2	Not Active	–
CC(C)(C/C=C1\C[C@H]2C[C@@H](O)[C@H](C#C[C@@H](O)C3CCCCC3)[C@H]2C1)CCO	Not Active	–
CC(C)(C/C=C1\C[C@H]2C[C@@H](O)[C@H](C#C[C@H](O)C3CCCCC3)[C@H]2C1)CC(=O)O	–	480

The remaining lines, values ahead:

IC50 (Homo sapiens [1])	IC50 (Homo sapiens [2]) [nM]	SMILES
Not Active	–	CCCCC[C@H](O)/C=C/[C@@H]1[C@H]2C/C(=C/CCCC(=O)O)C[C@H]2C[C@H]1O
Not Active	–	CCC#CC[C@H](C)[C@H](O)C#C[C@@H]1[C@H]2C/C(=C/COCC(=O)O)C[C@H]2C[C@H]1O [CICAPROST]
